System: STZ-induced hepatic steatosis
Experiment: STZ-induced mice model (lipid uptake, hepatic steatosis)
Format: in vivo
Conditions: for body weight versus STZ treated mice / hepatic steatosis / liver damage (histology): co-treated 3 days
Text: Eight-week-old Balb/c male mice were purchased from Koatech Co. (Pyeongtaek, Republic of Korea) and maintained in for 7 days in order to adapt to the environment. The experimental protocol was approved by the Animal Care and Use Committee of Korea Research Institute of Bioscience and Biotechnology Institution (KRIBB-AEC-17146) and performed in accordance with the National Institutes of Health Guidelines for the care and use of laboratory animals and with the Korean national laws for animal welfare. The mice were randomized initially into two experimental groups as follows: Non-treated group as a control; STZ treated group. STZ treated groups received an intraperitoneal injection of 200 mg/kg BW STZ, which was dissolved in citrate buffer (pH 4.5), while the animals belonging to the control group received vehicle injection. The next day following STZ administration, the induction of diabetes in all STZ-treated mice was confirmed the glucose level in blood by a glucometer (ACCU-CHEK, Roche diagnostics Inc., Seoul, Korea). All mice with blood glucose levels higher than 200 mg/dL in fasting state were considered acute diabetes. After the confirmation of the induction of diabetes, the mice of the experimental group were further randomized into three groups: STZ alone treated group; high dose of PLAG treated group; a low dose of PLAG treated group. PLAG was injected into mice for 3 days. Control and STZ alone treated groups were administrated orally to mice with the same PBS for 3 days. Following sacrifice, LPL activity was measured in plasma using a quantitative LPL activity assay kit (Cell Biolabs, Inc, San Diego, Calif.). Diluted samples and standards were loaded to the fluorescence microtiter plate, and LPL fluorometric substrate was added. After 30 minutes, the reaction stopped by stopping the solution. After 15 minutes, the sample fluorescence measured by a fluorescence microplate reader. The relative amounts of Apolipoprotein B48 (ApoB48) of portal vein plasma were evaluated by western blot analysis. […] The protein extracts were immunoblotted with the ApoB48 antibody (Abcam, MA, USA). Eight-week-old Balb/c male mice were purchased from Koatech Co. (Pyeongtaek, Republic of Korea) and maintained in for 7 days in order to adapt to the environment. The experimental protocol was approved by the Animal Care and Use Committee of Korea Research Institute of Bioscience and Biotechnology Institution (KRIBB-AEC-17146) and performed in accordance with the National Institutes of Health Guidelines for the care and use of laboratory animals and with the Korean national laws for animal welfare. The mice were randomized initially into 2 experimental groups as follows: Non-treated group as a control; STZ treated group. STZ treated groups received an intraperitoneal injection of 200 mg/kg BW STZ, which was dissolved in citrate buffer (pH 4.5), while the animals belonging to the control group received vehicle injection. The next day following STZ administration, the induction of diabetes in all STZ-treated mice was confirmed the glucose level in blood by a glucometer (ACCU-CHEK, Roche diagnostics Inc., Seoul, Korea). All mice with blood glucose levels higher than 200 mg/dL in fasting state were considered acute diabetes. After the confirmation of the induction of diabetes, the mice of the experimental group were further randomized into three groups: STZ alone treated group; high dose of PLAG treated group; a low dose of PLAG treated group. One day after STZ injection, mice were orally injected with PLAG for 3 days (FIG. 31A). The dosage and preparation of PLAG were determined according to previous reports. Control and STZ alone treated groups were administrated orally with the same PBS for 3 days. The experiments were carried out according to the methods mentioned above. […] Total RNA was isolated from the muscle of individual mice using TRIzol reagent (Favorgen Biotech, Taiwan). […]

With `CCCCC/C=C\C/C=C\CCCCCCCC(=O)OC(CO)COC(=O)CCCCCCCCCCCCCCC` (centres unmarked) [PLH, palmitic linoleic hydroxyl glycerol, reference compound] the “body weight versus STZ treated mice” value was “no difference” and the “hepatic steatosis / liver damage (histology)” value was “not altered”.

`CCCCC/C=C\C/C=C\CCCCCCCC(=O)OC(COC(C)=O)COC(=O)CCCCCCCCCCCCCCC` (racemic) [PLAG, 1-palmitoyl-2-linoleoyl-3-acetylglycerol] was tested, and the “STZ-induced empty fat vacuoles in liver (H&E)” value (250 mg/kg vs 50 mg/kg) was “decreased STZ-induced empty fat vacuoles more effectively than 50 mg/kg”, the “plasma LPL activity” value (STZ 200 mg/kg, PLAG 3 days) was “recovered” and the “muscle TG content” value (STZ/PLAG treated group) was “recovered”. For the same compound, the “body weight versus STZ treated mice” value was “less body weight loss”, the “hepatic steatosis / liver damage (histology)” value was “attenuated” and the “ApoB48 level in portal vein blood” value (dose-dependent) was “markedly reduced”.

From patent publication US20220339135A1, “COMPOSITIONS AND METHODS FOR MODULATING AN INFLAMMATORY RESPONSE” (Enzychem Lifesciences Corporation, priority 2019, published 2022)
